Results taken from patent US6358885B1, “Substituted phenylheterocyclic herbicides” (Mississippi State University, priority 1992, dated 2002).

Assays:
blackgrass [1] = assay: Test C preemergence/postemergence greenhouse plant response rating 0 to 100; type: in vivo, Alopecurus myosuroides; details: POSTEMERGENCE; for Plant response rating, Blackgrass: 0 to 100 scale
Outline: (§1)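 Compounds in non-phytotoxic solvent applied preemergence to sandy loam one day after planting, postemergence at the 1–4 leaf stage, or to ~2.5 cm floodwater over silt loam.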

sorghum [2] = assay: Test B preemergence/postemergence greenhouse plant response rating 0 to 10; type: in vivo, Sorghum bicolor; details: 0 to 10 scale
Outline: (§2)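 Planted seeds are treated preemergence with compound dissolved in a non-phytotoxic solvent, while postemergence applications go onto plants of two to eighteen cm. Plants stay in the greenhouse twelve to sixteen days and are then rated visually relative to controls.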

sorghum [3] = assay: Test C preemergence/postemergence greenhouse plant response rating 0 to 100; type: in vivo, Sorghum bicolor; details: POSTEMERGENCE; for Plant response rating, Sorghum: 0 to 100 scale
Outline: as §1

wild buckwheat = assay: as above; type: in vivo, Polygonum convolvulus; details: POSTEMERGENCE; for Plant response rating, Wild buckwheat: 0 to 100 scale
Outline: as §1

rice = assay: Test B preemergence/postemergence greenhouse plant response rating 0 to 10; type: in vivo, Oryza sativa; details: 0 to 10 scale
Outline: as §2

cheatgrass = assay: as above; type: in vivo, Bromus secalinus; details: 0 to 10 scale
Outline: as §2

rape = assay: as above; type: in vivo, Brassica napus; details: 0 to 10 scale
Outline: as §2

barley [4] = assay: as above; type: in vivo, Hordeum vulgare; details: 0 to 10 scale
Outline: as §2

bedstraw [5] = assay: Test C preemergence/postemergence greenhouse plant response rating 0 to 100; type: in vivo, Galium aparine; details: POSTEMERGENCE; for Plant response rating, Bedstraw: 0 to 100 scale
Outline: as §1

duck salad = assay: Test C flood test plant response rating 0 to 100; type: in vivo, Heteranthera limosa; details: for Plant response rating Duck salad: flood test species listed under POSTEMERGENCE, 0 to 100 scale
Outline: as §1

wheat = assay: Test B preemergence/postemergence greenhouse plant response rating 0 to 10; type: in vivo, Triticum aestivum; details: 0 to 10 scale
Outline: as §2

blackgrass [6] = assay: as above; type: in vivo, Alopecurus myosuroides; details: 0 to 10 scale
Outline: as §2

bedstraw [7] = assay: as above; type: in vivo, Galium aparine; details: 0 to 10 scale
Outline: as §2

sugar beet = assay: Test C preemergence/postemergence greenhouse plant response rating 0 to 100; type: in vivo, Beta vulgaris; details: POSTEMERGENCE; for Plant response rating, Sugar beet: 0 to 100 scale
Outline: as §1

pigweed = assay: as above; type: in vivo, Amaranthusretroflexus; details: POSTEMERGENCE; for Plant response rating Pigweed: 0 to 100 scale
Outline: as §1

ryegrass = assay: as above; type: in vivo, Lolium multiflorum; details: POSTEMERGENCE; for Plant response rating Ryegrass: 0 to 100 scale
Outline: as §1

cotton = assay: Test B preemergence/postemergence greenhouse plant response rating 0 to 10; type: in vivo, Gossypium hirsutum; details: 0 to 10 scale
Outline: as §2

barley [8] = assay: Test C preemergence/postemergence greenhouse plant response rating 0 to 100; type: in vivo, Hordeum vulgare; details: POSTEMERGENCE; for Plant response rating Barley Igri: 0 to 100 scale
Outline: as §1

Fc1cc(Cl)c(OCCCl)cc1-c1nn2c(c1Cl)CCCC2 [Compound 49] was tested, and the “Plant response rating, Blackgrass” value (blackgrass [1]; 62 g/ha) was 50, the “Plant response rating, Blackgrass” value (blackgrass [1]; 250 g/ha) was 70 and the “Plant response rating (0 to 100), Blackgrass” value (blackgrass [1]; Rate 4 g/ha) was 10. The “Plant response rating (0 to 100), Blackgrass” value (blackgrass [1]; Rate 16 g/ha) was 40, the “Plant response rating, Sorghum” value (sorghum [2]; POSTEMERGENCE, Rate 50 g/ha) was 3 and the “Plant response rating, Sorghum” value (sorghum [2]; PREEMERGENCE, Rate 50 g/ha) was 0. For the same compound, the “Plant response rating, Sorghum” value (sorghum [2]; Rate 200 g/ha, POSTEMERGENCE) was 5, the “Plant response rating, Sorghum” value (sorghum [2]; Rate 200 g/ha, PREEMERGENCE) was 1 and the “Plant response rating, Sorghum” value (sorghum [3]; 62 g/ha) was 50. For the same compound, the “Plant response rating, Sorghum” value (sorghum [3]; 250 g/ha) was 60, the “Plant response rating (0 to 100), Sorghum” value (sorghum [3]; Rate 4 g/ha) was 30 and the “Plant response rating (0 to 100), Sorghum” value (sorghum [3]; Rate 16 g/ha) was 40. The “Plant response rating, Wild buckwheat” value (wild buckwheat; 62 g/ha) was 100, the “Plant response rating, Wild buckwheat” value (wild buckwheat; 250 g/ha) was 100 and the “Plant response rating (0 to 100), Wild buckwheat” value (wild buckwheat; Rate 4 g/ha) was 100. For the same compound, the “Plant response rating (0 to 100), Wild buckwheat” value (wild buckwheat; Rate 16 g/ha) was 100, the “Plant response rating, Rice” value (rice; POSTEMERGENCE, Rate 50 g/ha) was 5 and the “Plant response rating, Rice” value (rice; PREEMERGENCE, Rate 50 g/ha) was 0. The “Plant response rating, Rice” value (rice; Rate 200 g/ha, POSTEMERGENCE) was 6, the “Plant response rating, Rice” value (rice; Rate 200 g/ha, PREEMERGENCE) was 0 and the “Plant response rating, Cheatgrass” value (cheatgrass; POSTEMERGENCE, Rate 50 g/ha) was 4. The “Plant response rating, Cheatgrass” value (cheatgrass; POSTEMERGENCE, Rate 200 g/ha) was 7, the “Plant response rating, Cheatgrass” value (cheatgrass; PREEMERGENCE, Rate 50 g/ha) was 0 and the “Plant response rating, Cheatgrass” value (cheatgrass; Rate 200 g/ha, PREEMERGENCE) was 2. For the same compound, the “Plant response rating, Rape” value (rape; POSTEMERGENCE, Rate 50 g/ha) was 7, the “Plant response rating, Rape” value (rape; PREEMERGENCE, Rate 50 g/ha) was 1 and the “Plant response rating, Rape” value (rape; Rate 200 g/ha, POSTEMERGENCE) was 6. For the same compound, the “Plant response rating, Rape” value (rape; Rate 200 g/ha, PREEMERGENCE) was 6, the “Plant response rating, Barley” value (barley [4]; POSTEMERGENCE, Rate 50 g/ha) was 4 and the “Plant response rating, Barley” value (barley [4]; POSTEMERGENCE, Rate 200 g/ha) was 5. For the same compound, the “Plant response rating, Barley” value (barley [4]; PREEMERGENCE, Rate 50 g/ha) was 0, the “Plant response rating, Barley” value (barley [4]; Rate 200 g/ha, PREEMERGENCE) was 0 and the “Plant response rating, Bedstraw” value (bedstraw [5]; 62 g/ha) was 70. The “Plant response rating, Bedstraw” value (bedstraw [5]; 250 g/ha) was 100, the “Plant response rating (0 to 100), Bedstraw” value (bedstraw [5]; Rate 4 g/ha) was 20 and the “Plant response rating (0 to 100), Bedstraw” value (bedstraw [5]; Rate 16 g/ha) was 50. For the same compound, the “Plant response rating (0 to 100), Duck salad” value (duck salad; POSTEMERGENCE section, flood test, Rate 4 g/ha) was 20, the “Plant response rating (0 to 100), Duck salad” value (duck salad; Rate 16 g/ha, under POSTEMERGENCE head (flood test species)) was 70 and the “Plant response rating Duck salad” value (duck salad; 62 g/ha) was 90. The “Plant response rating Duck salad” value (duck salad; 250 g/ha) was 95, the “Plant response rating, Wheat” value (wheat; POSTEMERGENCE, Rate 50 g/ha) was 5 and the “Plant response rating, Wheat” value (wheat; PREEMERGENCE, Rate 50 g/ha) was 0. The “Plant response rating, Wheat” value (wheat; Rate 200 g/ha, POSTEMERGENCE) was 4, the “Plant response rating, Wheat” value (wheat; Rate 200 g/ha, PREEMERGENCE) was 2 and the “Plant response rating, Blackgrass” value (blackgrass [6]; POSTEMERGENCE, Rate 50 g/ha) was 4. The “Plant response rating, Blackgrass” value (blackgrass [6]; POSTEMERGENCE, Rate 200 g/ha) was 6, the “Plant response rating, Blackgrass” value (blackgrass [6]; PREEMERGENCE, Rate 50 g/ha) was 0 and the “Plant response rating, Blackgrass” value (blackgrass [6]; Rate 200 g/ha, PREEMERGENCE) was 2. The “Plant response rating, Bedstraw” value (bedstraw [7]; POSTEMERGENCE, Rate 50 g/ha) was 9, the “Plant response rating, Bedstraw” value (bedstraw [7]; POSTEMERGENCE, Rate 200 g/ha) was 9 and the “Plant response rating, Bedstraw” value (bedstraw [7]; PREEMERGENCE, Rate 50 g/ha) was 8. For the same compound, the “Plant response rating, Bedstraw” value (bedstraw [7]; Rate 200 g/ha, PREEMERGENCE) was 9, the “Plant response rating, Sugar beet” value (sugar beet; 62 g/ha) was 100 and the “Plant response rating, Sugar beet” value (sugar beet; 250 g/ha) was 100. For the same compound, the “Plant response rating (0 to 100), Sugar beet” value (sugar beet; Rate 4 g/ha) was 100, the “Plant response rating (0 to 100), Sugar beet” value (sugar beet; Rate 16 g/ha) was 100 and the “Plant response rating Pigweed” value (pigweed; 62 g/ha) was 100. For the same compound, the “Plant response rating Pigweed” value (pigweed; 250 g/ha) was 100, the “Plant response rating (0 to 100), Pigweed” value (pigweed; Rate 4 g/ha) was 70 and the “Plant response rating (0 to 100), Pigweed” value (pigweed; Rate 16 g/ha) was 100. For the same compound, the “Plant response rating Ryegrass” value (ryegrass; 62 g/ha) was 50, the “Plant response rating Ryegrass” value (ryegrass; 250 g/ha) was 60 and the “Plant response rating (0 to 100), Ryegrass” value (ryegrass; Rate 4 g/ha) was 20. The “Plant response rating (0 to 100), Ryegrass” value (ryegrass; Rate 16 g/ha) was 40, the “Plant response rating, Cotton” value (cotton; POSTEMERGENCE, Rate 50 g/ha) was 10 and the “Plant response rating, Cotton” value (cotton; POSTEMERGENCE, Rate 200 g/ha) was 10. The “Plant response rating, Cotton” value (cotton; PREEMERGENCE, Rate 50 g/ha) was 2, the “Plant response rating, Cotton” value (cotton; Rate 200 g/ha, PREEMERGENCE) was 2 and the “Plant response rating Barley Igri” value (barley [8]; 62 g/ha) was 40. The “Plant response rating Barley Igri” value (barley [8]; 250 g/ha) was 60, the “Plant response rating (0 to 100), Barley Igri” value (barley [8]; Rate 4 g/ha) was 10 and the “Plant response rating (0 to 100), Barley Igri” value (barley [8]; Rate 16 g/ha) was 20.
